As usually defined, the MIC50 is the lowest concentration that inhibits either 50% of growth or 50% of the strains tested, depending on the study. The term MIC90 denotes the lowest concentration that inhibits either 90% of growth or 90% of the strains tested, depending on the study.

The assay concerns WT Mtb Erdman strain. Description: Microplate Alamar Blue Assay (MABA). In kind it is cell-based. Particulars: Mycobacterium tuberculosis; for MIC50: read-out: MABA MIC50; for MIC90: read-out: MABA MIC90. (In general: Alamar Blue is a resazurin reagent that responds to reducing activity.)
Setting [1] is: concentration that inhibits mycobacterial survival by 50%, Middlebrook 7H9 media, 7 days at 37° C., resazurin 24 hours.
Where [2] appears, read: concentration that inhibits mycobacterial survival by 90%, Middlebrook 7H9 media, 7 days at 37° C., resazurin 24 hours.

Values after ≈ are worked out from the molar mass of the structure shown. Structures can show the parent of a compound that is named as a salt. Where two headings read alike, the source gives them in different places.

For `Cc1nc(Nc2ccccc2)c2c(C)c(C)sc2n1` [Example 0797, 2,5,6-Trimethyl-N-phenylthieno[2,3-d]pyrimidin-4-amine], the MIC50 under setting [1] is more than 50 µM. Besides, the MIC90 under setting [2] was more than 50 µM.
For `C=C(C)c1cc2c(NC3CC3)nc(CC)nc2s1` [Example 1154, N-Cyclopropyl-2-ethyl-6-(prop-1-en-2-yl)thieno[2,3-d]pyrimidin-4-amine], the MIC50 under setting [1] is 45.9 µM (≈ 11.9 µg/mL). For the same compound, the MIC90 under setting [2] was more than 50 µM.
Regarding `Cc1cc2c(NCCCc3ccccc3)nc(C(F)(F)C(F)(F)F)nc2s1` [Example 1538, 6-Methyl-2-(1,1,2,2,2-pentafluoroethyl)-N-(3-phenylpropyl)thieno[2,3-d]pyrimidin-4-amine], under setting [1], the MIC50 stood at 0.597 µM (≈ 0.24 µg/mL). For the same compound, the MIC90 under setting [2] was found to be 1.1 µM (≈ 0.442 µg/mL).
On the same counts, the results for `FC(F)(F)C(F)(F)c1nc(NC2CC2)c2ccsc2n1` [Example 1543, N-Cyclopropyl-2-(perfluoroethyl)thieno[2,3-d]pyrimidin-4-amine] are 26.9 µM (≈ 8.32 µg/mL) and 29.6 µM (≈ 9.15 µg/mL).
As for `CCc1nc(NC2CC2)c2cc(Cl)sc2n1` [Example 1181, 6-Chloro-N-cyclopropyl-2-ethyl-thieno[2,3-d]pyrimidin-4-amine], the MIC50 under setting [1] came out at 3.06 µM (≈ 0.776 µg/mL). Besides, the MIC90 under setting [2] came to 7.64 µM (≈ 1.94 µg/mL).
The like results for `CCc1nc(NC(C(=O)O)C(C)C)c2cc(C)sc2n1` (centres unmarked) [Example 0851, 2-({2-ethyl-6-methylthieno[2,3-d]pyrimidin-4-yl}amino)-3-methylbutanoic acid] were, in that order, more than 50 µM and more than 50 µM.
On the same counts, the results for `CCCCNc1nc(CC)nc2sc(C)cc12` [Example 0728, N-butyl-2-ethyl-6-methylthieno[2,3-d]pyrimidin-4-amine] are 0.182 µM (≈ 0.0454 µg/mL) and 0.524 µM (≈ 0.131 µg/mL).
On the same counts, the results for `CCc1nc(NCCCC(F)(F)F)c2cc(C)sc2n1` [Example 1020, 2-Ethyl-6-methyl-N-(4,4,4-trifluorobutyl)thieno[2,3-d]pyrimidin-4-amine] are 0.116 µM (≈ 0.0352 µg/mL) and 0.163 µM (≈ 0.0494 µg/mL).
`CCc1nc(NC2CC2)c2oc3ccccc3c2n1` [Example 1142, N-cyclopropyl-2-ethyl-benzofuro[3,2-d]pyrimidin-4-amine]: the MIC50 under setting [1] came to 8.37 µM (≈ 2.12 µg/mL). In addition, under setting [2], the MIC90 was found to be 24.8 µM (≈ 6.28 µg/mL).
Regarding `CCc1nc(Nc2ccccc2)c2cc(C)sc2n1` [Example 1304, 2-Ethyl-6-methyl-N-phenylthieno[2,3-d]pyrimidin-4-amine], the MIC50 under setting [1] amounted to 25.2 µM (≈ 6.79 µg/mL). Besides, under setting [2], the MIC90 came to 41.6 µM (≈ 11.2 µg/mL).
On the same counts, the results for `CCc1nc(NCCc2ccc(Cl)cc2Cl)c2cc(C)sc2n1` [Example 1307, N-[2-(2,4-Dichlorophenyl)ethyl]-2-ethyl-6-methylthieno[2,3-d]pyrimidin-4-amine] are 0.526 µM (≈ 0.193 µg/mL) and 1.18 µM (≈ 0.432 µg/mL).
The like results for `Cc1nc(NCCCc2ccccc2)c2oc3ccccc3c2n1` [Example 1299, 2-Methyl-N-(3-phenylpropyl)benzofuro[3,2-d]pyrimidin-4-amine] were, in that order, 0.128 µM (≈ 0.0406 µg/mL) and 0.188 µM (≈ 0.0597 µg/mL).
With `Cc1cc2c(NC3CC3)nc(-c3ccccc3)nc2s1` [Example 1062, N-Cyclopropyl-6-methyl-2-phenyl-thieno[2,3-d]pyrimidin-4-amine], the MIC50 under setting [1] came to 2.88 µM (≈ 0.81 µg/mL). Besides, the MIC90 under setting [2] amounted to 6.01 µM (≈ 1.69 µg/mL).
As for `FC(F)(F)CCCNc1nc(C(F)(F)F)nc2sccc12` [Example 1548, N-(4,4,4-Trifluorobutyl)-2-(trifluoromethyl)thieno[2,3-d]pyrimidin-4-amine], the MIC50 under setting [1] is 12.3 µM (≈ 4.05 µg/mL). Further, under setting [2], the MIC90 stood at 13.7 µM (≈ 4.51 µg/mL).
On the same counts, the results for `Cc1nc(NCCc2ccccc2)c2c(C)c(C)sc2n1` [Example 0798, 2,5,6-Trimethyl-N-(2-phenylethyl)thieno[2,3-d]pyrimidin-4-amine] are 27.4 µM (≈ 8.15 µg/mL) and 32.9 µM (≈ 9.79 µg/mL).
The like results for `CCc1nc(NCCCc2ccccc2)c2cc(C)sc2n1` [Example 1023, 2-Ethyl-6-methyl-N-(3-phenylpropyl)thieno[2,3-d]pyrimidin-4-amine] were, in that order, 0.0266 µM (≈ 0.00828 µg/mL) and 0.108 µM (≈ 0.0336 µg/mL).
On the same counts, the results for `CCCCNc1nc(CC)nc2sccc12` [Example 1176, N-butyl-2-ethyl-thieno[2,3-d]pyrimidin-4-amine] are 3.8 µM (≈ 0.894 µg/mL) and 14.4 µM (≈ 3.39 µg/mL).
For the compound `CCc1nc(NCCCN(C)C)c2cc(C)sc2n1` [Example 0935, [3-({2-ethyl-6-methylthieno[2,3-d]pyrimidin-4-yl}amino)propyl]dimethylamine], the MIC50 under setting [1] is more than 50 µM. Under setting [2], the MIC90 is more than 50 µM.
As to `CCCCNc1nc(C(F)(F)F)nc2sc(C)cc12` [Example 1544, N-Butyl-6-methyl-2-(trifluoromethyl)thieno[2,3-d]pyrimidin-4-amine], the MIC50 under setting [1] was 1.14 µM (≈ 0.33 µg/mL). The MIC90 under setting [2] was determined as 3.69 µM (≈ 1.07 µg/mL).
The like results for `CCc1nc(NC2CC2)c2cc(-c3ccccc3)sc2n1` [Example 1150, N-Cyclopropyl-2-ethyl-6-phenyl-thieno[2,3-d]pyrimidin-4-amine] were, in that order, 21.1 µM (≈ 6.23 µg/mL) and 23.1 µM (≈ 6.82 µg/mL).
On the same counts, the results for `CCc1nc(NCCCc2ccccc2)c2ccsc2n1` [Example 1305, 2-Ethyl-N-(3-phenylpropyl)thieno[2,3-d]pyrimidin-4-amine] are 0.113 µM (≈ 0.0336 µg/mL) and 0.145 µM (≈ 0.0431 µg/mL).
The like results for `CCc1nc(NCc2ccccc2)c2cc(C)sc2n1` [Example 1303, N-Benzyl-2-ethyl-6-methylthieno[2,3-d]pyrimidin-4-amine] were, in that order, 10.6 µM (≈ 3 µg/mL) and 20.8 µM (≈ 5.89 µg/mL).
`Cc1cc2c(NCCCC(F)(F)F)nc(C(F)(F)F)nc2s1` [Example 1551, 6-Methyl-N-(4,4,4-trifluorobutyl)-2-(trifluoromethyl)thieno[2,3-d]pyrimidin-4-amine]: the MIC50 under setting [1] was determined as 0.846 µM (≈ 0.29 µg/mL). Further, the MIC90 under setting [2] turned out to be 3.88 µM (≈ 1.33 µg/mL).
Take `Cc1cc2c(NC3CC3)nc(C(F)(F)C(F)(F)F)nc2s1` [Example 1542, N-Cyclopropyl-6-methyl-2-(perfluoroethyl)thieno[2,3-d]pyrimidin-4-amine]: the MIC50 under setting [1] turned out to be 5.28 µM (≈ 1.71 µg/mL). Under setting [2], the MIC90 was 10.1 µM (≈ 3.27 µg/mL).
On the same counts, the results for `Cc1cccc(-c2nc(NCCCC(F)(F)F)c3c(C)csc3n2)n1` [Example 1711, 5-methyl-2-(6-methylpyridin-2-yl)-N-(4,4,4-trifluorobutyl)thieno[2,3-d]pyrimidin-4-amine] are 6.48 µM (≈ 2.37 µg/mL) and 19.4 µM (≈ 7.11 µg/mL).
On the same counts, the results for `Cc1cc2c(NC3CC3)nc(C(F)(F)F)nc2s1` [Example 1540, N-Cyclopropyl-6-methyl-2-(trifluoromethyl)thieno[2,3-d]pyrimidin-4-amine] are 1.81 µM (≈ 0.495 µg/mL) and 4.79 µM (≈ 1.31 µg/mL).
On the same counts, the results for `CCc1nc(NCCc2ccccc2)c2cc(C)sc2n1` [Example 1306, 2-Ethyl-6-methyl-N-phenethylthieno[2,3-d]pyrimidin-4-amine] are 0.125 µM (≈ 0.0372 µg/mL) and 0.183 µM (≈ 0.0544 µg/mL).
`Cc1nc(NC2CC2)c2oc3ccccc3c2n1` [Example 1151, N-Cyclopropyl-2-methyl-benzofuro[3,2-d]pyrimidin-4-amine]: the MIC50 under setting [1] was determined as 11.1 µM (≈ 2.66 µg/mL). Further, the MIC90 under setting [2] amounted to 33.9 µM (≈ 8.11 µg/mL).
Take `CCc1nc(NCc2ccc(Cl)cc2)c2cc(C)sc2n1` [Example 1302, N-(4-Chlorobenzyl)-2-ethyl-6-methylthieno[2,3-d]pyrimidin-4-amine]: under setting [1], the MIC50 was 2.63 µM (≈ 0.836 µg/mL). The MIC90 under setting [2] was found to be 5.54 µM (≈ 1.76 µg/mL).
On the same counts, the results for `CCc1nc(NCCCc2ccccc2)c2c(C)csc2n1` [Example 1698, 2-Ethyl-5-methyl-N-(3-phenylpropyl)thieno[2,3-d]pyrimidin-4-amine] are 0.515 µM (≈ 0.16 µg/mL) and 3.67 µM (≈ 1.14 µg/mL).
The like results for `FC(F)(F)c1nc(NCCCc2ccccc2)c2ccsc2n1` [Example 1537, N-(Phenylpropyl)-2-(trifluoromethyl)thieno[2,3-d]pyrimidin-4-amine] were, in that order, 0.439 µM (≈ 0.148 µg/mL) and 1.14 µM (≈ 0.385 µg/mL).
On the same counts, the results for `CCc1nc(NCc2ccccn2)c2cc(C)sc2n1` [Example 1308, 2-Ethyl-6-methyl-N-(2-pyridylmethyl)thieno[2,3-d]pyrimidin-4-amine] are 21.6 µM (≈ 6.14 µg/mL) and 31.6 µM (≈ 8.99 µg/mL).
For the compound `CCCCNc1nc(C(F)(F)C(F)(F)F)nc2sc(C)cc12` [Example 1546, N-Butyl-6-methyl-2-(perfluoroethyl)thieno[2,3-d]pyrimidin-4-amine], under setting [1], the MIC50 is 11.2 µM (≈ 3.8 µg/mL). Further, the MIC90 under setting [2] is 12.4 µM (≈ 4.21 µg/mL).
On the same counts, the results for `Cc1cccc(-c2nc(NCCCc3ccccc3)c3c(C)csc3n2)n1` [Example 1709, 5-methyl-2-(6-methylpyridin-2-yl)-N-(3-phenylpropyl)thieno[2,3-d]pyrimidin-4-amine] are 2.56 µM (≈ 0.959 µg/mL) and 19.7 µM (≈ 7.38 µg/mL).
The like results for `CCc1nc(NC2CC2)c2cc(C(F)(F)F)sc2n1` [Example 1177, N-Cyclopropyl-2-ethyl-6-(trifluoromethyl)thieno[2,3-d]pyrimidin-4-amine] were, in that order, 30.8 µM (≈ 8.85 µg/mL) and more than 50 µM.
The like results for `FC(F)(F)CCCNc1nc(C(F)(F)C(F)(F)F)nc2sccc12` [Example 1549, 2-(Perfluoroethyl)-N-(4,4,4-trifluorobutyl)thieno[2,3-d]pyrimidin-4-amine] were, in that order, 22.3 µM (≈ 8.46 µg/mL) and 24.2 µM (≈ 9.18 µg/mL).
As for `CCCCNc1nc(C)nc2sc(C)c(C)c12` [Example 0796, N-butyl-2,5,6-trimethylthieno[2,3-d]pyrimidin-4-amine trifluoroacetate], the MIC50 is more than 50 µM and the MIC90 is more than 50 µM.
`CCCCNc1nc(C(F)(F)C(F)(F)F)nc2sccc12` [Example 1547, N-Butyl-2-(perfluoroethyl)thieno[2,3-d]pyrimidin-4-amine]: the MIC50 under setting [1] turned out to be 21.9 µM (≈ 7.12 µg/mL). Further, under setting [2], the MIC90 was found to be 23.8 µM (≈ 7.74 µg/mL).
On the same counts, the results for `CCc1nc(NC2CC2)c2cc(Br)sc2n1` [Example 1146, 6-Bromo-N-cyclopropyl-2-ethyl-thieno[2,3-d]pyrimidin-4-amine] are 5.98 µM (≈ 1.78 µg/mL) and 13.8 µM (≈ 4.12 µg/mL).
On the same counts, the results for `CCc1nc(NC2CC2)c2cc(C3CC3)sc2n1` [Example 1161, N,6-Dicyclopropyl-2-ethyl-thieno[2,3-d]pyrimidin-4-amine] are 31.3 µM (≈ 8.12 µg/mL) and 36.3 µM (≈ 9.42 µg/mL).

These data come from patent US20220117968A1, “THIENO[2,3-D)PYRIMIDINES AND BENZOFURO(3,2-D)PYRIMIDINES AS ANTIMICROBIAL AGENTS” (Saint Louis University, priority 2017, published 2022).
